Blank lines part the entries; values can stand above or below the compound they belong to.
What was measured:
Format in all cases: physicochemical
[1] = Annealing of the dihydrate, form checked by IR
Experimental: 1(d). A sample from example 1(a) was annealed for 10 minutes at 90° C. while another sample of the same product was annealed for 30 minutes at 145° C. […] The IR for the sample annealed for 10 minutes is as shown in FIG. 4 and the IR for the sample annealed for 30 minutes is as shown in FIG. 5.

[2] = Weight loss on drying in a vacuum oven; conditions: vacuum oven at 40° C. for 65 hours
Experimental: 1(b). 735.1 mg of the product of example 1(a) was dried in a vacuum oven at 40° C. for 65 hours. The weight loss was 0.043 g or 5.85%, which corresponds to 1.9 moles of water per mole of amlodipine.

[3] = Weight gain of dried (anhydrate) salt form on exposure to air; conditions: exposed to air
From the text: 1(c). A sample of the anhydrate formed in example 1(b) was exposed to air and the weight gain recorded as follows: […]

[4] = Stability in solid state and in solution
[5] = Light sensitivity; conditions: compared with known anhydrate
[6] = compared with known prior art anhydrate

Compound: amlodipine besylate dihydrate [example 1(a)]
- form after annealing (IR) ([1]; annealed for 10 minutes at 90° C.): converted to the known anhydrate form
- form after annealing (IR) ([1]; annealed for 30 minutes at 145° C.): converted to the known anhydrate form
- moles of water per mole of amlodipine lost [2]: 1.9 mol

- mole of water taken up for one mole of amlodipine ([3]; 21 hour): one
- Weight after 30 min ([3]; weight at start 318.6 mg): 320.3 mg
- Weight after 1 hour ([3]; weight at start 318.6 mg): 323.9 mg
- Weight after 3.5 hour ([3]; weight at start 318.6 mg): 328.2 mg
- Weight after 21 hour ([3]; weight at start 318.6 mg): 328.2 mg
Compound: CCOC(=O)C1=C(COCCN)NC(C)=C(C(=O)OC)C1c1ccccc1Cl.O=S(=O)(O)c1ccccc1 (centres unmarked) [example 2(a)]

- moles of water taken up for one mole of amlodipine ([3]; 21 hour): two
- Weight after 30 min ([3]; weight at start 103.1 mg): 105.7 mg
- Weight after 1 hour ([3]; weight at start 103.1 mg): 107.3 mg
- Weight after 3.5 hour ([3]; weight at start 103.1 mg): 109.3 mg
- Weight after 21 hour ([3]; weight at start 103.1 mg): 109.3 mg
Compound: CCOC(=O)C1=C(COCCN)NC(C)=C(C(=O)OC)C1c1ccccc1Cl.O=S(=O)(O)c1ccccc1 (centres unmarked) [example 1(b)]

Compound: amlodipine besylate monohydrate
- stability in solid state [4, 6]: equivalent to the known prior art amlodipine besylate anhydrate form
- stability in solution [4, 6]: equivalent to the known prior art amlodipine besylate anhydrate form
- stability of hydrate form ([4]; monohydrate compared with dihydrate, conversion by heating): more stable than the dihydrate form
- light sensitivity [5]: slightly less in comparison to the known anhydrate
